Laboratory results reported in patent US20250101436A1, “APTAMERS AND SMALL MOLECULE LIGANDS” (MeiraGTx UK II Limited, priority 2021, published 2025).

Tests used:
N5-12G6 riboswitch = assay: Firefly luciferase assay, N5-12G6 riboswitch in HEK293 cells; conditions: for fold induction at 2 µM / fold induction at 25 µM / fold induction at 3.3 µM: Homo sapiens; for fold induction at 2 µM: HEK293, read-out: Fold induction 2 μM (HEK), 12G6 riboswitch, luciferase, HEK293, 2 μM; for fold induction at 25 µM: HEK293, read-out: Fold induction 25 μM (HEK), 12G6 riboswitch, luciferase, HEK293, 25 μM; for fold induction at 3.3 µM: HEK293, read-out: Fold induction 3.3 μM (HEK), 12G6 riboswitch, luciferase, HEK293, 3.3 μM
Procedure: Transfection: 3.5×10^4 human embryonic kidney (HEK) 293 cells were plated in a 96-well flat bottom plate the day before transfection. Plasmid DNA (500 ng) was added to a tube or a 96-well U-bottom plate. Separately, TransIT-293 reagent (Mirus; 1.4 L) was added to 50 μL Optimum I media (Life Technologies) and allowed to sit for 5 minutes at room temperature (RT). Then, 50 μL of this diluted transfection reagent was added to the DNA, mixed, and incubated at RT for 20 min. Finally, 7 μL of this solution was added to a well of cells in the 96-well plate. Four hours after transfection, medium containing transfection solution was replaced by medium with either TPP or fursultiamine as aptamer ligands.
Firefly luciferase assay of cultured cells: Twenty-four hours after media change, plates were removed from the incubator, and equilibrated to RT for several minutes on a lab bench, then aspirated. Glo-lysis buffer (Promega, 100 μL, RT) was added, and the plates allowed to remain at RT for at least 5 minutes. Then, the well contents were mixed by 50 μL trituration, and 20 μL of each sample was mixed with 20 μL of bright-glo reagent (Promega) that had been diluted to 10% in glo-lysis buffer. 96 wells were spaced on an opaque white 384-well plate. Following a 5 min incubation at RT, luminescence was measured using a Tecan machine with 500 ms read time. The luciferase activity was expressed as mean arbitrary light units (ALU)±S.D., and fold induction was calculated as the quotient of the luciferase activity obtained from cells with TPP or analog compound treatment divided by the luciferase activity obtained from cells without TPP or analog compound treatment.

[1] = test system: luciferase gene expression in HEK 293 cells in response to Comp. 004; assay: Screen of riboswitch constructs with 12C6-1 variant aptamers (libraries N1-N5) against Comp. 004, luciferase in HEK 293 cells; format: cell-based, human
Summary of the method: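 Riboswitch constructs carrying 12C6-1 aptamer variants, randomized in J2-4, J2-3/J3-3a/J3a-2/P3, L3a, J4-5/J5-4/P4 or L5 regions (libraries N1-N5), cloned into an intron-exon-intron cassette driving luciferase. Screened in HEK 293 cells with 25 µM Comp. 004; read-out is fold induction of gene expression versus parent Luci-12C6-1.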

[2] = library N2 variant aptamers (J2-3, P3-J3-3a, J3a-2 randomized) of 12C6-1 in riboswitch constructs, in response to Comp. 004, HEK 293 cells
[3] = library N5 variant aptamers (L5, X16-X21 randomized) of 12C6-1 in riboswitch constructs, in response to Comp. 004 treatment, HEK 293 cells
[4] = library N1 (J2-4), HEK 293, 25 M [sic] Comp. 004

Cc1cncc(NCc2cc(Cl)c3nccnc3c2)c1N1CCNCC1 [compound 085, N-((8-chloroquinoxalin-6-yl)methyl)-5-methyl-4-(piperazin-1-yl)pyridin-3-amine]
fold induction at 2 µM (N5-12G6 riboswitch): 5.4

Fc1cc2nccnc2cc1CNc1cncc(Cl)c1O[C@@H]1CCNC1 [compound 120, (R)-5-chloro-N-((7-fluoroquinoxalin-6-yl)methyl)-4-(pyrrolidin-3-yloxy)pyridin-3-amine]
fold induction at 2 µM (N5-12G6 riboswitch): 24.7

Clc1cncc(NCc2cc(Cl)c3nccnc3c2)c1N1CCNCC1 [compound 055, 5-chloro-N-((8-chloroquinoxalin-6-yl)methyl)-4-(piperazin-1-yl)pyridin-3-amine]
fold induction at 2 µM (N5-12G6 riboswitch): 4.1

c1cc(N2CCOCC2)c(NCc2ccc3nccnc3c2)cn1 [compound 039, 4-morpholino-N-(quinoxalin-6-ylmethyl)pyridin-3-amine]
fold induction at 25 µM (N5-12G6 riboswitch): 6

C[C@@H]1CNCCN1c1c(Cl)cncc1NCc1ccc2nccnc2c1 [compound 026, (R)-5-Chloro-4-(2-methylpiperazin-1-yl)-N-(quinoxalin-6-ylmethyl)pyridin-3-amine]
fold induction at 2 µM (N5-12G6 riboswitch): 27.2

Fc1cncc(NCc2cc(F)c3nccnc3c2)c1N1CCCNCC1 [compound 095, 4-(1,4-diazepan-1-yl)-5-fluoro-N-((8-fluoroquinoxalin-6-yl)methyl)pyridin-3-amine]
fold induction at 2 µM (N5-12G6 riboswitch): 8.9

c1cc(OC2CCNC2)c(NCc2ccc3nccnc3c2)cn1 (centres unmarked) [compound 018, 4-(Pyrrolidin-3-yloxy)-N-(quinoxalin-6-ylmethyl)pyridin-3-amine]
regulation of luciferase expression (FIG. 4e) (N5-12G6 riboswitch; 12G6 riboswitch, HEK293): regulate expression in a dose-dependent fashion | fold induction at 25 µM (N5-12G6 riboswitch): 286

c1cc(O[C@H]2CCNC2)c(NCc2ccc3nccnc3c2)cn1 [compound 044, (S)-4-(pyrrolidin-3-yloxy)-N-(quinoxalin-6-ylmethyl)pyridin-3-amine]
fold induction at 3.3 µM (N5-12G6 riboswitch): 22

Fc1cc2nccnc2cc1CNc1cnccc1N1CCCNCC1 [compound 090, 4-(1,4-diazepan-1-yl)-N-((7-fluoroquinoxalin-6-yl)methyl)pyridin-3-amine]
fold induction at 2 µM (N5-12G6 riboswitch): 15

Clc1cncc(NCc2ccc3nccnc3c2)c1O[C@@H]1CCNC1 [compound 110, (R)-5-chloro-4-(pyrrolidin-3-yloxy)-N-(quinoxalin-6-ylmethyl)pyridin-3-amine]
fold induction at 2 µM (N5-12G6 riboswitch): 43.1

Fc1cc(CNc2cnccc2N2CCCNCC2)cc2nccnc12 [compound 088, 4-(1,4-diazepan-1-yl)-N-((8-fluoroquinoxalin-6-yl)methyl)pyridin-3-amine]
fold induction at 2 µM (N5-12G6 riboswitch): 2.6

Clc1cc(CNc2cnccc2N2CCNCC2)cc2nccnc12 [compound 049, N-((8-chloroquinoxalin-6-yl)methyl)-4-(piperazin-1-yl)pyridin-3-amine]
fold induction at 2 µM (N5-12G6 riboswitch): 5.7

N#Cc1ccc(N2CCNCC2)c(NCc2ccc3nccnc3c2)c1 [compound 048, 4-(piperazin-1-yl)-3-((quinoxalin-6-ylmethyl)amino)benzonitrile]
fold induction at 2 µM (N5-12G6 riboswitch): 1

Cc1cc2nccnc2cc1CNc1cnccc1N1CCNCC1 [compound 069, N-((7-methylquinoxalin-6-yl)methyl)-4-(piperazin-1-yl)pyridin-3-amine]
fold induction at 2 µM (N5-12G6 riboswitch): 28.3

Fc1cncc(NCc2cc(F)c3nccnc3c2)c1N1CCNCC1 [compound 080, 5-fluoro-N-((8-fluoroquinoxalin-6-yl)methyl)-4-(piperazin-1-yl)pyridin-3-amine]
fold induction at 2 µM (N5-12G6 riboswitch): 31.2

CN(c1ccncc1NCc1ccc2nccnc2c1)C1CCNC1 (centres unmarked) [compound 035, N^4-methyl-N^4-(pyrrolidin-3-yl)-N^3-(quinoxalin-6-ylmethyl)pyridine-3,4-diamine]
fold induction at 25 µM (N5-12G6 riboswitch): 86.4

Fc1cncc(NCc2ccc3nccnc3c2)c1O[C@@H]1CCNC1 [compound 109, (R)-5-fluoro-4-(pyrrolidin-3-yloxy)-N-(quinoxalin-6-ylmethyl)pyridin-3-amine]
fold induction at 2 µM (N5-12G6 riboswitch): 54.6

Clc1cc2nccnc2cc1CNc1cncc(Cl)c1O[C@@H]1CCNC1 [compound 121, (R)-5-chloro-N-((7-chloroquinoxalin-6-yl)methyl)-4-(pyrrolidin-3-yloxy)pyridin-3-amine]
fold induction at 2 µM (N5-12G6 riboswitch): 28.2

Fc1cc2nccnc2cc1CNc1cnccc1N1CCNCC1 [compound 050, N-((7-fluoroquinoxalin-6-yl)methyl)-4-(piperazin-1-yl)pyridin-3-amine]
fold induction at 2 µM (N5-12G6 riboswitch): 23.5

c1cc(OC2CNC2)c(NCc2ccc3nccnc3c2)cn1 [compound 022, 4-(Azetidin-3-yloxy)-N-(quinoxalin-6-ylmethyl)pyridin-3-amine]
fold induction at 2 µM (N5-12G6 riboswitch): 43.2

C[C@H]1CN(c2ccncc2NCc2ccc3nccnc3c2)CCN1 [compound 042, (S)-4-(3-methylpiperazin-1-yl)-N-(quinoxalin-6-ylmethyl)pyridin-3-amine]
fold induction at 3.3 µM (N5-12G6 riboswitch): 29

N2_2C9 (CTGGGGAGTCCTTCATGC; chemistry not given here)
Fold (induction of luciferase gene expression) [1, 2]: 1.2 fold

N5_1H9 (CTGGGGAGTCCT; chemistry not given here)
Fold (induction of luciferase gene expression) [1, 3]: 714.2 fold

N5_2E11 (CTGGGGAGTCCT; chemistry not given here)
Fold (induction of luciferase gene expression) [1, 3]: 1038.1 fold

N1_2G8 (CTGGGGAGTCCTTCATGCGGGGC; chemistry not given here)
Fold (induction of luciferase gene expression) [1, 4]: 8.46 fold

N5_1B5 (CTGGGGAGTCCT; chemistry not given here)
Fold (induction of luciferase gene expression) [1, 3]: 780.8 fold

N2_2G6 (DNA CTGGGGAGTCCTTCATGC; chemistry not given here)
Fold (induction of luciferase gene expression) [1, 2]: 1.1 fold

N5_1E5 (CTGGGGAGTCCT; chemistry not given here)
Fold (induction of luciferase gene expression) [1, 3]: 681.3 fold

N5_7D5 (DNA CTGGGGAGTCCT; chemistry not given here)
Fold (induction of luciferase gene expression) [1, 3]: 1182.3 fold

N2_2B8 (CTGGGGAGTCCTTCATGC; chemistry not given here)
Fold (induction of luciferase gene expression) [1, 2]: 1.1 fold

N5_7B6 (CTGGGGAGTCCT; chemistry not given here)
Fold (induction of luciferase gene expression) [1, 3]: 875.4 fold

N5_1A8 (CTGGGGAGTCCT; chemistry not given here)
Fold (induction of luciferase gene expression) [1, 3]: 589.4 fold

N5_7H9 (DNA CTGGGGAGTCCT; chemistry not given here)
Fold (induction of luciferase gene expression) [1, 3]: 860.0 fold

N1_2G1 (CTGGGGAGTCCTTCATGCGGGGC; chemistry not given here)
Fold (induction of luciferase gene expression) [1, 4]: 100.11 fold

N5_1C7 (CTGGGGAGTCCT; chemistry not given here)
Fold (induction of luciferase gene expression) [1, 3]: 485.7 fold

N5_9G5 (DNA CTGGGGAGTCCT; chemistry not given here)
Fold (induction of luciferase gene expression) [1, 3]: 725.3 fold

N1_2E3 (CTGGGGAGTCCTTCATGCGGGGC; chemistry not given here)
Fold (induction of luciferase gene expression) [1, 4]: 5.79 fold

N5_7B10 (CTGGGGAGTCCT; chemistry not given here)
Fold (induction of luciferase gene expression) [1, 3]: 1361.5 fold

N5_7F5 (DNA CTGGGGAGTCCT; chemistry not given here)
Fold (induction of luciferase gene expression) [1, 3]: 1115.4 fold

N1_2E5 (CTGGGGAGTCCTTCATGCGGGGC; chemistry not given here)
Fold (induction of luciferase gene expression) [1, 4]: 35.05 fold

N5_13G5 (CTGGGGAGTCCT; chemistry not given here)
Fold (induction of luciferase gene expression) [1, 3]: 1198.5 fold

N2_2G5 (DNA CTGGGGAGTCCTTCATGC; chemistry not given here)
Fold (induction of luciferase gene expression) [1, 2]: 1.0 fold

N5_1G9 (CTGGGGAGTCCT; chemistry not given here)
Fold (induction of luciferase gene expression) [1, 3]: 1230.3 fold

N5_1H4 (CTGGGGAGTCCT; chemistry not given here)
Fold (induction of luciferase gene expression) [1, 3]: 482.5 fold

N5_1H10 (CTGGGGAGTCCT; chemistry not given here)
Fold (induction of luciferase gene expression) [1, 3]: 781.1 fold

N5_7A10 (CTGGGGAGTCCT; chemistry not given here)
Fold (induction of luciferase gene expression) [1, 3]: 1108.5 fold

N5_1C10 (CTGGGGAGTCCT; chemistry not given here)
Fold (induction of luciferase gene expression) [1, 3]: 693.8 fold

N1_2D7 (CTGGGGAGTCCTTCATGCGGGGC; chemistry not given here)
Fold (induction of luciferase gene expression) [1, 4]: 2.16 fold

N5_7E12 (DNA CTGGGGAGTCCT; chemistry not given here)
Fold (induction of luciferase gene expression) [1, 3]: 933.3 fold

N5_2C5 (CTGGGGAGTCCT; chemistry not given here)
Fold (induction of luciferase gene expression) [1, 3]: 1055.1 fold

N5_1G11 (CTGGGGAGTCCT; chemistry not given here)
Fold (induction of luciferase gene expression) [1, 3]: 789.0 fold

N5_3F11 (CTGGGGAGTCCT; chemistry not given here)
Fold (induction of luciferase gene expression) [1, 3]: 1628.3 fold

N1_2F3 (CTGGGGAGTCCTTCATGCGGGGC; chemistry not given here)
Fold (induction of luciferase gene expression) [1, 4]: 15.56 fold

N2_2B1 (CTGGGGAGTCCTTCATGC; chemistry not given here)
Fold (induction of luciferase gene expression) [1, 2]: 1.0 fold

N5_7C7 (DNA CTGGGGAGTCCT; chemistry not given here)
Fold (induction of luciferase gene expression) [1, 3]: 489.1 fold
